≈ marks a conversion by molar mass, not a printed value. Calls of active or inactive are those of the source. The calls are words filed in the database; no cut-off is given here.
Tests used:
[1] = test system: Staphylococcus aureus; experiment: Potentiation of methicillin-induced antibacterial activity against methicillin-resistant Staphylococcus aureus CC398 assessed as methicillin MBC at 2.5 microg/ml; assay type: functional; conditions: dose 2.5 µg/ml
[2] = test system: Staphylococcus aureus; experiment: Potentiation of methicillin-induced antibacterial activity against methicillin-resistant Staphylococcus aureus CC398 assessed as ratio of methicillin MBC to MIC at 2.5 microg/ml; assay type: functional; conditions: dose 2.5 µg/ml
[3] = test system: Staphylococcus aureus; experiment: Upregulation of enolase expression in methicillin-resistant Staphylococcus aureus CC398 by gene ontology analysis; assay type: functional
[4] = test system: Staphylococcus aureus; experiment: Downregulation of superoxide dismutase expression in methicillin-resistant Staphylococcus aureus CC398 in the presence of methicillin by gene ontology analysis; assay type: functional
[5] = test system: Staphylococcus aureus; experiment: Potentiation of methicillin-induced antibacterial activity against methicillin-resistant Staphylococcus aureus CC398 assessed as reduction in methicillin MIC at 2.5 microg/ml relative to control; assay type: functional; set-up: scale not given: the % may be the effect or the level left; conditions: dose 2.5 µg/ml
[6] = test system: Staphylococcus aureus; experiment: Antibacterial activity against methicillin-resistant Staphylococcus aureus CC398 assessed as reduction in bacterial growth measured after 4 hrs by real-time microscopic analysis; assay type: functional
[7] = test system: Staphylococcus aureus; experiment: Downregulation of succinate-CoA synthase expression in methicillin-resistant Staphylococcus aureus CC398 in the presence of methicillin by gene ontology analysis; assay type: functional
[8] = test system: Staphylococcus aureus; experiment: Downregulation of isocitrate dehydrogenase expression in methicillin-resistant Staphylococcus aureus CC398 in the presence of methicillin by gene ontology analysis; assay type: functional
[9] = test system: Staphylococcus aureus; experiment: Antibacterial activity against methicillin-resistant Staphylococcus aureus CC398 assessed as inhibition of bacterial growth at lower concentration incubated for 15 hrs by real-time microscopic analysis; assay type: functional, organism-based
[10] = test system: Staphylococcus aureus; experiment: Upregulation of proline-tRNA ligase expression in methicillin-resistant Staphylococcus aureus CC398 in the presence of methicillin by gene ontology analysis; assay type: functional
[11] = test system: Staphylococcus aureus; experiment: Downregulation of catalase expression in methicillin-resistant Staphylococcus aureus CC398 in the presence of methicillin by gene ontology analysis; assay type: functional
[12] = test system: Staphylococcus aureus; experiment: Upregulation of ATP synthase subunit B expression in methicillin-resistant Staphylococcus aureus CC398 in the presence of methicillin by gene ontology analysis; assay type: functional
[13] = test system: Staphylococcus aureus; experiment: Antibacterial activity against methicillin-resistant Staphylococcus aureus CC398 assessed as inhibition of bacterial growth at higher concentration incubated for 15 hrs by real-time microscopic analysis; assay type: functional, organism-based
[14] = test system: Staphylococcus aureus; experiment: Upregulation of GTP-binding protein typeA expression in methicillin-resistant Staphylococcus aureus CC398 in the presence of methicillin by gene ontology analysis; assay type: functional
[15] = test system: Staphylococcus aureus; experiment: Upregulation of elongation factor P expression in methicillin-resistant Staphylococcus aureus CC398 in the presence of methicillin by gene ontology analysis; assay type: functional
[16] = test system: Staphylococcus aureus; experiment: Antibacterial activity against methicillin-resistant Staphylococcus aureus CC398 assessed as increase in cell density at 1.25 microg/ml by real-time microscopic analysis relative to control; assay type: functional; conditions: dose 1.25 µg/ml; time 15 hrs
[17] = Selectivity ratio of MBC for bactericidal activity against methicillin-resistant Staphylococcus aureus CC398 to MIC for antibacterial activity against methicillin-resistant Staphylococcus aureus CC398; assay type: functional
[18] = test system: Staphylococcus aureus; experiment: Upregulation of ATP synthase subunit beta expression in methicillin-resistant Staphylococcus aureus CC398 in the presence of methicillin by gene ontology analysis; assay type: functional
[19] = test system: Staphylococcus aureus; experiment: Upregulation of peptide chain release factor 1 expression in methicillin-resistant Staphylococcus aureus CC398 in the presence of methicillin; assay type: functional
[20] = test system: Staphylococcus aureus; experiment: Bactericidal activity against methicillin-resistant Staphylococcus aureus CC398 assessed as reduction in bacterial viability measured after 15 hrs by real-time microscopic analysis; assay type: functional
[21] = test system: Staphylococcus aureus; experiment: Upregulation of ATP synthase subunit alpha expression in methicillin-resistant Staphylococcus aureus CC398 in the presence of methicillin by gene ontology analysis; assay type: functional
[22] = test system: Staphylococcus aureus; experiment: Downregulation of phosphoglycerate kinase expression in methicillin-resistant Staphylococcus aureus CC398 in the presence of methicillin by gene ontology analysis; assay type: functional
[23] = test system: Staphylococcus aureus; experiment: Potentiation of methicillin-induced antibacterial activity against methicillin-resistant Staphylococcus aureus CC398 assessed as methicillin MIC at 2.5 microg/ml; assay type: functional; conditions: dose 2.5 µg/ml
[24] = test system: Staphylococcus aureus; experiment: Downregulation of pyruvate kinase expression in methicillin-resistant Staphylococcus aureus CC398 in the presence of methicillin by gene ontology analysis; assay type: functional
[25] = test system: Staphylococcus aureus; experiment: Upregulation of PBP2 protein expression in methicilin-resistant Staphylococcus aureus CC398 in the presence of methicillin by gene ontology analysis; assay type: functional
[26] = test system: Staphylococcus aureus; experiment: Upregulation of ATP-dependent protease ATPase subunit […] expression in methicillin-resistant Staphylococcus aureus CC398 in the presence of methicillin by gene ontology analysis; assay type: functional
[27] = test system: Staphylococcus aureus; experiment: Antibacterial activity against methicillin-resistant Staphylococcus aureus CC398 assessed as increase in cell density at 2.5 microg/ml measured after 15 hrs by real-time microscopic analysis relative to control; assay type: functional; conditions: dose 2.5 µg/ml
[28] = test system: Staphylococcus aureus; experiment: Downregulation of cysteine synthase expression in methicillin-resistant Staphylococcus aureus CC398 in the presence of methicillin by gene ontology analysis; assay type: functional
[29] = test system: Staphylococcus aureus; experiment: Downregulation of Carbamoyl-phosphate synthase small chain expression in methicillin-resistant Staphylococcus aureus CC398 in the presence of methicillin by gene ontology analysis; assay type: functional
[30] = test system: Staphylococcus aureus; experiment: Downregulation of serine hydroxy methyltransferase expression in methicillin-resistant Staphylococcus aureus CC398 in the presence of methicillin by gene ontology analysis; assay type: functional
[31] = test system: Staphylococcus aureus; experiment: Downregulation of Threonine synthase expression in methicillin-resistant Staphylococcus aureus CC398 in the presence of methicillin by gene ontology analysis; assay type: functional
[32] = test system: Staphylococcus aureus; experiment: Upregulation of GrpE protein expression in methicillin-resistant Staphylococcus aureus CC398 in the presence of methicillin by gene ontology analysis; assay type: functional
[33] = test system: Staphylococcus aureus; experiment: Downregulation of aminoacyl-tRNA-synthetase expression in methicillin-resistant Staphylococcus aureus CC398 in the presence of methicillin by gene ontology analysis; assay type: functional
[34] = test system: Staphylococcus aureus; experiment: Downregulation of valine-tRNA-synthetase expression in methicillin-resistant Staphylococcus aureus CC398 in the presence of methicillin by gene ontology analysis; assay type: functional
[35] = test system: Staphylococcus aureus; experiment: Potentiation of methicillin-induced antibacterial activity against methicillin-resistant Staphylococcus aureus CC398 assessed as methicillin MBC at 7.5 microg/ml; assay type: functional; conditions: dose 7.5 µg/ml
[36] = test system: Staphylococcus aureus; experiment: Downregulation of arginine-tRNA-synthetase expression in methicillin-resistant Staphylococcus aureus CC398 in the presence of methicillin by gene ontology analysis; assay type: functional
[37] = test system: Staphylococcus aureus; experiment: Potentiation of methicillin-induced antibacterial activity against methicillin-resistant Staphylococcus aureus CC398 assessed as ratio of methicillin MBC to MIC at 7.5 microg/ml; assay type: functional; conditions: dose 7.5 µg/ml
[38] = test system: Staphylococcus aureus; experiment: Upregulation of DNA-directed RNA polymerase subunit omega expression in Staphylococcus aureus CC398 in the presence of methicillin by gene ontology analysis; assay type: functional
[39] = test system: Staphylococcus aureus; experiment: Downregulation of fructose-1,6-bisphosphate aldolase expression in methicillin-resistant Staphylococcus aureus CC398 in the presence of methicillin by gene ontology analysis; assay type: functional
[40] = test system: Staphylococcus aureus; experiment: Potentiation of methicillin-induced antibacterial activity against methicillin-resistant Staphylococcus aureus CC398 assessed as methicillin MIC at 7.5 microg/ml; assay type: functional; conditions: dose 7.5 µg/ml
[41] = test system: Staphylococcus aureus; experiment: Downregulation of elongation factor Tu expression in methicillin-resistant Staphylococcus aureus CC398 in the presence of methicillin by gene ontology analysis; assay type: functional
[42] = test system: Staphylococcus aureus; experiment: Antibacterial activity against methicillin-resistant Staphylococcus aureus CC398 assessed as increase in cell density at 5 microg/ml measured after 15 hrs by real-time microscopic analysis relative to control; assay type: functional; conditions: dose 5 µg/ml
[43] = test system: Staphylococcus aureus; experiment: Upregulation of SepF expression in Staphylococcus aureus CC398 in the presence of methicillin by gene ontology analysis; assay type: functional
[44] = test system: Staphylococcus aureus; experiment: Downregulation of 2,3-bisphosphoglycerate-independent phosphoglycerate mutase expression in methicillin-resistant Staphylococcus aureus CC398 in the presence of methicillin by gene ontology analysis; assay type: functional
[45] = test system: Staphylococcus aureus; experiment: Downregulation of isoleucine-tRNA-synthetase expression in methicillin-resistant Staphylococcus aureus CC398 in the presence of methicillin by gene ontology analysis; assay type: functional
[46] = test system: Staphylococcus aureus; experiment: Downregulation of elongation factor G expression in methicillin-resistant Staphylococcus aureus CC398 in the presence of methicillin by gene ontology analysis; assay type: functional
[47] = test system: Staphylococcus aureus; experiment: Antibacterial activity against methicillin-resistant Staphylococcus aureus CC398 assessed as increase in cell growth rate by measuring maximal response at 1 microg/ml after 15 hrs by real-time microscopic analysis relative to control; assay type: functional; conditions: dose 1 µg/ml
[48] = test system: Staphylococcus aureus; experiment: Upregulation of ATP synthase subunit alpha expression in Staphylococcus aureus CC398 by gene ontology analysis; assay type: functional
[49] = test system: Staphylococcus aureus; experiment: Upregulation of ATP synthase subunit beta expression in Staphylococcus aureus CC398 by gene ontology analysis; assay type: functional
[50] = test system: Staphylococcus aureus; experiment: Antibacterial activity against methicillin-resistant Staphylococcus aureus CC398 assessed as increase in cell density at 1 microg/ml measured after 15 hrs by real-time microscopic analysis relative to control; assay type: functional; conditions: dose 1 µg/ml
[51] = test system: Staphylococcus aureus; experiment: Upregulation of ATP synthase subunit b expression in Staphylococcus aureus CC398 by gene ontology analysis; assay type: functional
[52] = test system: Staphylococcus aureus; experiment: Upregulation of PBP2 protein expression in Staphylococcus aureus CC398 by gene ontology analysis; assay type: functional

SMILES | MIC [1] | Ratio [2] | Activity [3] | Activity [4] | Activity [5] | MIC [6] | Activity [9] | Activity [11] | Activity [12] | Activity [13] | Ratio [17] | Activity [18] | MBC [20] | Activity [21] | Activity [22] | MBC [23] | Activity [24] | Activity [32] | other results
C=C(C)[C@@H]1CCC(C)=C[C@H]1c1c(O)cc(CCCCC)cc1O [CANNABIDIOL] | 0.063 µg/mL | 16 | Active | Active | 87.5% | 2.5 µg/mL (≈ 7.95 µM) | inactive | Active | Active | Active | 2 | Active | 5 µg/mL (≈ 15.9 µM) | Active | Active | 1 µg/mL |  |  | Activity [7]: Active; Activity [8]: Active; Activity [10]: Active; Activity [14]: Active; Activity [15]: Active; Activity [16]: 19%; Activity [19]: Active
CCCCCc1cc(O)c2c(c1)OC(C)(C)c1ccc(C)cc1-2 [CANNABINOL] | 0.063 µg/mL | 16 | Active | Active | 87.5% | 2.5 µg/mL (≈ 8.05 µM) | inactive | Active | Active | Active | 3 | Active | 7.5 µg/mL (≈ 24.2 µM) | Active | Active | 1 µg/mL | Active | Active | Activity [25]: Active; Activity [26]: Active; Activity [27]: 29%; Activity [28]: Active; Activity [29]: Active; Activity [30]: Active; Activity [31]: Active; Activity [33]: Active
CCCCCc1cc(O)c2c(c1)OC(C)(C)[C@@H]1CCC(C)=C[C@@H]21 [DRONABINOL] |  |  | Active | Active | 93.8% | 7.5 µg/mL (≈ 23.8 µM) | inactive |  | Active | Active | 2.67 | Active | 20 µg/mL (≈ 63.6 µM) | Active | Active |  | Active | Active | Activity [34]: Active; MBC [35]: 0.5 µg/mL; Activity [36]: Active; Ratio [37]: 8; Activity [38]: Active; Activity [39]: Active; MIC [40]: 0.063 µg/mL; Activity [41]: Active; Activity [42]: 45%; Activity [43]: Active; Activity [44]: Active; Activity [45]: Active; Activity [46]: Active
COc1cccc(OC)c1C(=O)N[C@@H]1C(=O)N2[C@@H]1SC(C)(C)[C@@H]2C(=O)O [METHICILLIN] |  |  |  |  |  | 4 µg/mL (≈ 10.5 µM) |  |  |  |  |  |  | 8 µg/mL (≈ 21 µM) |  |  |  |  |  | Activity [47]: 143%; Activity [48]: Active; Activity [49]: Active; Activity [50]: 43%; Activity [51]: Active; Activity [52]: Active

— ChEMBL document CHEMBL5321264, “Proteomic Changes in Methicillin-Resistant Staphylococcus aureus Exposed to Cannabinoids” (2023)
